From patent US8765799B2, “Streptospirole derivatives” (Sanofi, priority 2008, dated 2014) come the findings set out here.

Usually IC50 stands for the concentration that inhibits the measured activity by half.

For assay [1], the system named is S. pneumoniae (DSMZ 11865). Put plainly: Broth microdilution IC50 determination, S. pneumoniae. Particulars: Streptococcus pneumoniae, DSMZ11865, assay mode Lum. The class given is cell-based. From the text:
(§1) A test which is based on determining the intracellular concentration of ATP is employed for measuring the bacterial viability. It relies on the fact that intact living bacteria have higher intra-cellular ATP levels than bacterial cells which are damaged by the action of antimicrobials. The formulation of the reagent supports bacterial cell lysis and ATP is quantified luminometrically by a luciferin/luciferase reaction. The compounds of the formula (I) are used in a test as further outlined in Examples section in a single dose of 0.125-64μg/ml and a dose dependency is given as a IC50 value in Table 6. This Example describes the standard broth dilution method-microdilution used to determine the in vitro susceptibility of bacteria growing aerobically according to NCCLS M7-A7. The IC50 value of the compound to be tested is calculated as the inhibitory concentration of 50% at which 50% visible turbidity or the ATP level is inhibited. Compound stock solutions were prepared at concentrations of at least 1000μg/ml with methanol. After testing, the stock solution is aliquoted and stored at −80° C. Nystatin was dissolved in DMSO and then further dissolved in the respective culture medium. For every test strain following controls on each 384 well clear-transparent microtitration plate are needed: • drug-free growth control, • sterile control, and • Ciprofloxacin and Nystatin as reference compounds. For an IC50 determination at least ten or twenty serial dilutions (geometrical dilution with factor 2) were prepared. The usual test concentrations range from 64 to 0.125μg/ml or 64 to 0.0001μg/ml for strong inhibition. […] The exact colony number of each strain was determined by a surface culture method. […] Reading: The reading of the grown wells was done by means of a photometer for microtitration plates at 590 nm by absorbance mode. For Mycobacterium smegmatis the microtitration plates were measured by luminescence mode after incubation with 20μl BacTiter-Glo™/well for 5 minutes at room temperature protected from light. Evaluation: The IC50 values were determined in XLfit 4, model function 205.
(Broth dilution looks for growth in wells or tubes with falling amounts of substance.)

For the next assay, the system named is M. smegmatis (ATCC 607). Description: Broth microdilution IC50 determination, M. smegmatis. The class given is cell-based, Mycobacterium smegmatis. Conditions: Mycolicibacterium smegmatis, ATCC607, assay mode Lum. (ATP level), 48 h incubation. An excerpt:
A test which is based on determining the intracellular concentration of ATP is employed for measuring the bacterial viability. It relies on the fact that intact living bacteria have higher intra-cellular ATP levels than bacterial cells which are damaged by the action of antimicrobials. The formulation of the reagent supports bacterial cell lysis and ATP is quantified luminometrically by a luciferin/luciferase reaction. The compounds of the formula (I) are used in a test as further outlined in Examples section in a single dose of 0.125-64μg/ml and a dose dependency is given as a IC50 value in Table 6. This Example describes the standard broth dilution method-microdilution used to determine the in vitro susceptibility of bacteria growing aerobically according to NCCLS M7-A7. The IC50 value of the compound to be tested is calculated as the inhibitory concentration of 50% at which 50% visible turbidity or the ATP level is inhibited. Compound stock solutions were prepared at concentrations of at least 1000μg/ml with methanol. After testing, the stock solution is aliquoted and stored at −80° C. Nystatin was dissolved in DMSO and then further dissolved in the respective culture medium. For every test strain following controls on each 384 well clear-transparent microtitration plate are needed: • drug-free growth control, • sterile control, and • Ciprofloxacin and Nystatin as reference compounds. For Mycobacterium smegmatis a special 384 well white microtitration plate was used. For an IC50 determination at least ten or twenty serial dilutions (geometrical dilution with factor 2) were prepared. [table] […] The exact colony number of each strain was determined by a surface culture method. […] Reading: The reading of the grown wells was done by means of a photometer for microtitration plates at 590 nm by absorbance mode. For Mycobacterium smegmatis the microtitration plates were measured by luminescence mode after incubation with 20μl BacTiter-Glo™/well for 5 minutes at room temperature protected from light. Evaluation: The IC50 values were determined in XLfit 4, model function 205.

In the next assay the test system is S. aureus (ATCC 29213). Put plainly: Broth microdilution IC50 determination, S. aureus ATCC 29213. Type of assay: cell-based. Particulars: Staphylococcus aureus, ATCC29213, assay mode Abs. (590 nm), 20 h incubation. Here is the method:
as §1, with “The” for “A test which is based on determining the intracellular concentration of ATP is employed for measuring the bacterial viability. It relies on the fact that intact living bacteria have higher intra-cellular ATP levels than bacterial cells which are damaged by the action of antimicrobials. The formulation of the reagent supports bacterial cell lysis and ATP is quantified luminometrically by a luciferin/luciferase reaction. The”, “prepared. [table]” for “prepared.”, “inhibition. At the specification of the concentration the inoculation volume has to be considered. The whole test volume (compound solution and inoculum) was prepared with 40μl and accordingly for Mycobacterium smegmatis 20μl. The serial dilutions with Ciprofloxacin and Nystatin were prepared in special 384 well clear-transparent microtitration plate and were transferred in each 384 well microtitration plate before inoculation.” for “inhibition.”

For the next assay, the system named is S. aureus (ATCC 33592). Description: Broth microdilution IC50 determination, S. aureus ATCC 33592. Type of assay: cell-based. Conditions: Staphylococcus aureus, ATCC33592, assay mode Abs. (590 nm). Here is the method:
as §1, with “The” for “A test which is based on determining the intracellular concentration of ATP is employed for measuring the bacterial viability. It relies on the fact that intact living bacteria have higher intra-cellular ATP levels than bacterial cells which are damaged by the action of antimicrobials. The formulation of the reagent supports bacterial cell lysis and ATP is quantified luminometrically by a luciferin/luciferase reaction. The”, “inhibition. At the specification of the concentration the inoculation volume has to be considered. The whole test volume (compound solution and inoculum) was prepared with 40μl and accordingly for Mycobacterium smegmatis 20μl. The serial dilutions with Ciprofloxacin and Nystatin were prepared in special 384 well clear-transparent microtitration plate and were transferred in each 384 well microtitration plate before inoculation.” for “inhibition.”

For the next assay, the system named is S. pyogenes (ATCC 12344). Description: Broth microdilution IC50 determination, S. pyogenes. The class given is cell-based. Conditions: Streptococcus pyogenes, ATCC12344, assay mode Abs. (590 nm), 20 h incubation. Here is the method: as §1, with “The” for “A test which is based on determining the intracellular concentration of ATP is employed for measuring the bacterial viability. It relies on the fact that intact living bacteria have higher intra-cellular ATP levels than bacterial cells which are damaged by the action of antimicrobials. The formulation of the reagent supports bacterial cell lysis and ATP is quantified luminometrically by a luciferin/luciferase reaction. The”, “prepared. [table]” for “prepared.”, “inhibition. At the specification of the concentration the inoculation volume has to be considered. The whole test volume (compound solution and inoculum) was prepared with 40μl and accordingly for Mycobacterium smegmatis 20μl. The serial dilutions with Ciprofloxacin and Nystatin were prepared in special 384 well clear-transparent microtitration plate and were transferred in each 384 well microtitration plate before inoculation.” for “inhibition.”

A further assay deals with E. faecalis (ATCC 29212). Description: Broth microdilution IC50 determination, E. faecalis. Type of assay: cell-based. Conditions: Enterococcus faecalis, ATCC29212, assay mode Abs. (590 nm), 20 h incubation. As for the experimental part:
as §1, with “The” for “A test which is based on determining the intracellular concentration of ATP is employed for measuring the bacterial viability. It relies on the fact that intact living bacteria have higher intra-cellular ATP levels than bacterial cells which are damaged by the action of antimicrobials. The formulation of the reagent supports bacterial cell lysis and ATP is quantified luminometrically by a luciferin/luciferase reaction. The”, “prepared. [table]” for “prepared.”, “inhibition. At the specification of the concentration the inoculation volume has to be considered. The whole test volume (compound solution and inoculum) was prepared with 40μl and accordingly for Mycobacterium smegmatis 20μl. The serial dilutions with Ciprofloxacin and Nystatin were prepared in special 384 well clear-transparent microtitration plate and were transferred in each 384 well microtitration plate before inoculation.” for “inhibition.”

The structures appear in SMILES notation. In brackets after ≈: the same amount, converted by molar mass.

As for `CC[C@H](C)CCCc1c(O)ccc2c1O[C@]1(C2=O)C(Cl)=C(Cl)C(=O)N1C` [(IV), Streptospirole C], the IC50 in assay [1] worked out at 0.21 µg/mL (≈ 0.527 µM); in the assay on M. smegmatis (ATCC 607) it was 0.09 µg/mL (≈ 0.226 µM); with S. aureus (ATCC 29213), 0.005 µg/mL (≈ 0.0126 µM); in the assay on S. aureus (ATCC 33592), 0.003 µg/mL (≈ 0.00753 µM); in the assay with S. pyogenes (ATCC 12344), 0.04 µg/mL (≈ 0.1 µM); in the assay with E. faecalis (ATCC 29212), 0.07 µg/mL (≈ 0.176 µM).
`CCCCCCc1c(O)ccc2c1O[C@]1(C2=O)C(Cl)=C(Cl)C(=O)N1C` [(II), Streptospirole A]: the half-maximal inhibitory concentration (IC50) in assay [1] was 0.28 µg/mL (≈ 0.729 µM); in the assay with M. smegmatis (ATCC 607), 0.4 µg/mL (≈ 1.04 µM); with S. aureus (ATCC 29213), 0.08 µg/mL (≈ 0.208 µM); in the assay with S. aureus (ATCC 33592) it was 0.03 µg/mL (≈ 0.0781 µM); in the assay on S. pyogenes (ATCC 12344), 0.28 µg/mL (≈ 0.729 µM); with E. faecalis (ATCC 29212), 0.87 µg/mL (≈ 2.26 µM).
`CC(C)CCCc1c(O)ccc2c1O[C@]1(C2=O)C(Cl)=C(Cl)C(=O)N1C` [(III), Streptospirole B]: the IC50 is 0.34 µg/mL (≈ 0.885 µM) in assay [1]; 0.26 µg/mL (≈ 0.677 µM) with M. smegmatis (ATCC 607); 0.05 µg/mL (≈ 0.13 µM) in the assay with S. aureus (ATCC 29213); 0.02 µg/mL (≈ 0.052 µM) with S. aureus (ATCC 33592); 0.12 µg/mL (≈ 0.312 µM) in the assay with S. pyogenes (ATCC 12344); 0.59 µg/mL (≈ 1.54 µM) with E. faecalis (ATCC 29212).
